Target: T1, KV7.2-W236L (Homo sapiens, UniProt O43526, W236L)
T1 construct: expressed in transfected cells; host or cells: Xenopus laevis oocytes injected with cRNA (pGEM-HE vector)
Test: Two-electrode voltage-clamp of mutant KV7.2-W236L in Xenopus laevis oocytes
Assay type: cell-based
Description: Point mutations were introduced using mutated oligonucleotide extension (PfuTurbo Polymerase, Stratagene, La Jolla, CA, USA) from a plasmid template harboring the cDNA of interest, digested with DpnI (Fermentas, St. Leon-Roth, Germany) and transformed into E.coli XL1 Blue cells. The construct was verified by complete DNA sequencing of the cDNA insert. cRNA was prepared from linearized human wild-type (WT) and mutant KV7 channels in the pGEM-HE vector using the T7 m-Message Machine kit (Ambion, Austin, TX, USA) according to the manufacturer's instructions.
Extraction of Xenopus laevis oocytes and injection of cRNA was performed as described previously. Oocytes were kept in Modified Barth's Saline (in mM: 88 NaCl, 1 KCl, 2.4 NaHCO3, 0.41 CaCl2, 0.82 MgSO4, 0.3 Ca(NO3)2, 15 HEPES, pH 7.4 supplemented with 100 U/mL penicillin and 100 µg/mL streptomycin) at 18°C, and currents were recorded after 2-7 days. The care of Xenopus laevis and the oocyte extraction procedure were performed according to national guidelines and approved by the Danish Animal Experiments Inspectorate.
KV7 currents in Xenopus laevis oocytes were recorded using two-electrode voltage-clamp at room temperature in Ringer buffer (in mM: 115 NaCl, 2.5 KCl, 1.8 CaCl2, 0.1 MgCl2, 10 HEPES, pH 7.4) as described previously. Data was acquired using pCLAMP 10.2 software (Molecular Devices, CA, USA) and analyzed using pCLAMP 10.2 and GraphPad Prism 4.0 (GraphPad Software Inc., CA, USA). Currents were elicited from a holding potential of −80 mV by 5 s steps to potentials between −100 and +50 mV in 10 mV increments, followed by a 2 s step to −120 mV.
SMB-1 was dissolved in dimethyl sulfoxide (DMSO) to obtain a concentrated stock solution. On the day of experiments the stock solution was thawed and diluted in Ringer buffer to the final concentrations. A concentration of 10 µM SMB-1 was used unless indicated otherwise. The final DMSO concentration never exceeded 0.1%.
Current – voltage (I–V) relationship curves were generated by normalizing the steady-state peak current measured at potentials between −100 and +50 mV to the current measured at +50 mV in control recordings and plotting the values against the test potential.
The voltage-dependence of activation was determined from tail current analysis using the current measured immediately after the transient capacitive current after stepping to −120 mV from potentials between −100 mV and +50 mV. Data was normalized to extend from 0–1 and the tail current-voltage relationship was fitted to the Boltzmann equation: [drawing 1] (Equation\;1) where I max is the maximum tail current, I min is the minimum tail current, V0.5 is the potential for half maximal activation and k is the slope factor. A V0.5 was calculated for each individual experiment and statistical significance was estimated by paired two-tailed Student's t-test.
Activation kinetics for KV7.2 and KV7.2-W236L was determined by fitting the traces recorded at potentials between −40 and +40 mV to a double exponential function: [drawing 2] (Equation\;2) where I(t) is the current at time t, Ifast and Islow are the current amplitudes at infinite times, and τfast and τslow are the time constants of the fast and slow components, respectively.
For investigation of deactivation kinetics the tail current traces recorded at −120 mV when stepping from the channels' respective ∼V0.5 were fitted to a single exponential function (Eq. 3).

T1 sequence (O43526 whole entry W236L): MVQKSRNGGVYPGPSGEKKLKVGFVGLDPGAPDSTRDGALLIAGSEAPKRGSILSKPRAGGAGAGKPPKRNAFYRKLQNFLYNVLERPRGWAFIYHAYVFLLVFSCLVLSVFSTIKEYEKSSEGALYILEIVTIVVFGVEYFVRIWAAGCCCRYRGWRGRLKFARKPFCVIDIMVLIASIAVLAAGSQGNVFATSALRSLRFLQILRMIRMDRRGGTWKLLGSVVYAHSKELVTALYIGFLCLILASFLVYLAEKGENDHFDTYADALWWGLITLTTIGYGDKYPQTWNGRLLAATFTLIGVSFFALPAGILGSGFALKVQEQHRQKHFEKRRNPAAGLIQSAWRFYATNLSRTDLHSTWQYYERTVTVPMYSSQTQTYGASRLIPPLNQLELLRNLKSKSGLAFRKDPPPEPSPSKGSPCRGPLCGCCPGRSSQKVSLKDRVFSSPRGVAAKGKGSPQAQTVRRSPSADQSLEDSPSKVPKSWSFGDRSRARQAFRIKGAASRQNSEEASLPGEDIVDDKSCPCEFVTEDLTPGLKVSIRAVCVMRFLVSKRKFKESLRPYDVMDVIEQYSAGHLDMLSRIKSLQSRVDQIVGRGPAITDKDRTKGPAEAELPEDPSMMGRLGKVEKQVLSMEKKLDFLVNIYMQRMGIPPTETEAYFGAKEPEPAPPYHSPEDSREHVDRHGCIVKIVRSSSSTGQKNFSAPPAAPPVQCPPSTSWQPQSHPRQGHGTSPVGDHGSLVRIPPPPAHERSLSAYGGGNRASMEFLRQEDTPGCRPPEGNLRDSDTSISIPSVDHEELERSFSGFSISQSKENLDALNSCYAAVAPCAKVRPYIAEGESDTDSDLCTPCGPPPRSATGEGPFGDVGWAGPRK

`C[C@@H](c1ccc2c(c1)N(CC1CC1)CCO2)N(C)C(=O)/C=C/c1ccccc1F` [SMB-1, (E)-N-[(S)-1-(4-Cyclopropylmethyl-3,4-dihydro-2H-1,4-benzoxazin-6-yl)-ethyl]-3-(2-fluoro-phenyl)-N-methyl-acrylamide] was tested, and the “effect on τact_fast” value (10 µM) was “no significant effect”, the remaining activity at 10 µM (10 µM SMB-1, +50 mV, n = 6, read-out: current amplitude, % of control) was 68.8 ± 3.9% and the “effect on τact_slow” value (10 µM, at potentials above −20 mV) was “significantly increased”. The “τdeact, deactivation time constant in presence of compound” value (10 µM, control 23.3±2.9 ms, n = 6, p<0.05) was 27.0 ± 3.0 ms and the “V0.5, voltage-dependence of activation in presence of compound” value (10 µM, control −27.1±2.4 mV, n = 4, p = 0.2) was −15.0±10.1 mV.

— article PMC4067310, “From Pan-Reactive KV7 Channel Opener to Subtype Selective Opener/Inhibitor by Addition of a Methyl Group” (PLoS ONE, 2014)
